# Source: ChEMBL document CHEMBL4396936 (Bioorg Med Chem Lett, 2019)
# What was measured:
# [1] = target: T1, Indoleamine 2,3-dioxygenase 1 (Homo sapiens, UniProt P14902); experiment: Binding affinity to recombinant ferrous state of IDO1 (unknown origin) expressed in Escherichia coli assessed as dissociation constant incubated for 30 mins by UV-Visible spectrophotometric method
# Target sequence in this assay (P14902 whole entry): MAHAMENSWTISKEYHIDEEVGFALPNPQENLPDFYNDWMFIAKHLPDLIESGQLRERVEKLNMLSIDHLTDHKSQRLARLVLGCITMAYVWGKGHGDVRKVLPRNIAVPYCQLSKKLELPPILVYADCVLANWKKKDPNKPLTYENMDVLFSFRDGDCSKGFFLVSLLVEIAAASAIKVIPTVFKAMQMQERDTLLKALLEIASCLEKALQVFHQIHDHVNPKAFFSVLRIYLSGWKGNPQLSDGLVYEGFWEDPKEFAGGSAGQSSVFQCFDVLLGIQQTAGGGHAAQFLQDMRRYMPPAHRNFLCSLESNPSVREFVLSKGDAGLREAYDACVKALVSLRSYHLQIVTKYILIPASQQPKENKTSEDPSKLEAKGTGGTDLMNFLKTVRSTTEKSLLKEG
# [2] = target: T1, Indoleamine 2,3-dioxygenase 1; experiment: Binding affinity to recombinant ferric state of IDO1 (unknown origin) expressed in Escherichia coli assessed as dissociation constant incubated for 30 mins by UV-Visible spectrophotometric method
# Target sequence in this assay (P14902 whole entry): as above
# [3] = target: T1, Indoleamine 2,3-dioxygenase 1; experiment: Inhibition of recombinant IDO1 (unknown origin) expressed in Escherichia coli at 10 uM incubated for 30 mins by methylene blue dye based UV-Visible spectrophotometric method relative to control
# Target sequence in this assay (P14902 whole entry, looked up): as the sequence (P14902 whole entry) above
# [4] = target: Indoleamine 2,3-dioxygenase 1 (Homo sapiens, UniProt P14902, C129Y); experiment: Binding affinity to recombinant ferrous state of IDO1 C129Y mutant (unknown origin) expressed in Escherichia coli assessed as dissociation constant incubated for 30 mins by UV-Visible spectrophotometric method
# [5] = tested on: Indoleamine 2,3-dioxygenase 1 (Homo sapiens), P14902 [C129Y]; experiment: Inhibition of recombinant IDO1 C129Y mutant (unknown origin) expressed in Escherichia coli at 10 uM incubated for 30 mins by methylene blue dye based UV-Visible spectrophotometric method relative to control
# Sequence of Indoleamine 2,3-dioxygenase 1 (Homo sapiens), P14902 [C129Y] (P14902 whole entry C129Y): as the sequence (P14902 whole entry) above, with C129Y counted along it
# Sequence of Indoleamine 2,3-dioxygenase 1 (Homo sapiens, UniProt P14902, C129Y) (P14902 whole entry C129Y): as the sequence (P14902 whole entry) above, with C129Y counted along it
Compound,Kd [1],Kd [2],inhibition [3],Kd [4],inhibition [5]
Cc1cc([Si](C)(C)C)c2cn[nH]c2c1,1.7 µM,2.5 µM,50%,–,–
C[Si](C)(C)c1cccc2[nH]ncc12,43 µM,150 µM,7.2%,–,–
c1ccc2[nH]ncc2c1,–,–,1%,–,–
OC(Cc1ccccc1)c1cc(C2CC2)cc2[nH]ncc12 (racemic),1.2 µM,–,62%,28 µM,20%
OC(Cc1ccccc1)c1cc(-c2ccccc2)cc2[nH]ncc12 (racemic),53 µM,–,4%,–,14%

# Other lines, results leading:
Kd [1],Kd [2],inhibition [3],Kd [4],inhibition [5],Compound
0.14 µM,0.6 µM,90%,2.2 µM,23%,OC(Cc1ccccc1)c1cc(Br)cc2[nH]ncc12 (racemic)
0.74 µM,1.1 µM,70%,44 µM,18%,CCc1cc(C(O)Cc2ccccc2)c2cn[nH]c2c1 (racemic)
7.9 µM,31 µM,13%,66 µM,14%,OC(Cc1ccccc1)c1cccc2[nH]ncc12 (racemic)
1.3 µM,7.4 µM,32%,94 µM,12%,C#Cc1cc(C(O)Cc2ccccc2)c2cn[nH]c2c1 (racemic)
0.47 µM,1.2 µM,76%,27 µM,18%,Cc1cc(C(O)Cc2ccccc2)c2cn[nH]c2c1 (racemic)
